What was measured:
Large crabgrass = test: Herbicidal activity at different growth stages, fresh weight suppression; assay type: in vivo; conditions: fresh weight two weeks after treatment
Description: (§1) To a cup pot having a surface area of 100 cm^2 wherein mixed soils including blend bed soil (Boonong, Horticultural Bed Soil No. 3) and sandy loam soil were filled (mixing ratio, 1:1), seeds of large crabgrass and annual bluegrass were sown consecutively at an one week interval. The pots were moistened by sub-irrigation, and kept in a greenhouse maintained at 25˜30° C. (day) or 15˜25° C. (night). The said weeds were grown to various growth stages from pre-emergence to the four-leaf stage. Then, they were applied with the test substance of the present invention at dosage of 2, 1, 0.5, or 0.25 kg/ha. As a reference herbicide, Dithiopyr (32% EC, manufactured by Dongbu Hannong Chemical Company), was applied at 0.96, 0.48, or 0.24 kg/ha. Spray volume was adjusted to 2,000 L/ha. The method to spray of the test substance and prepare spray solutions were the same as described above. The reference herbicide was used after it was diluted with 0.2% (v/v) Tween 20 aqueous solution. The test was conducted in a randomized block design with three replicates. Two weeks after the treatment, plant parts remained above the pot soil surface were cut and the fresh weight was weighed. Results are given by a suppression ratio relative to the biomass that was obtained from the untreated group (see, Table 3).

Annual bluegrass = test: as above; assay type: in vivo; conditions: fresh weight two weeks after treatment
Description: as §1, with “Then, they were applied with the test substance of the present invention at dosage of 2, 1, 0.5, or 0.25 kg/ha. As a reference herbicide, Dithiopyr (32% EC, manufactured by Dongbu Hannong Chemical Company), was applied at 0.96, 0.48, or 0.24 kg/ha.” left out

Zoysiagrass = test: Turfgrass safety test (sod mat pots), visual phytotoxicity; assay type: in vivo, Zoysia japonica; conditions: for Phytotoxic effect, visual assessment: Zoysiagrass Week 2 / Phytotoxic effect, visual assessment: Zoysiagrass Week 4 / Phytotoxic effect, visual assessment: Zoysiagrass Week 6: 0-10 scale (10=completely killed)
From the text: (§2) Commercially available sod mats of zoysiagrass and bentgrass, Kentucky bluegrass, and perennial ryegrass were purchased. After cutting each turf sod mat in a size of 10 cm×20 cm, it was transplanted to a rectangular plastic pot having a surface area of 300 cm^2 wherein mixed soils including blend of a bed soil (Boonong, Horticultural Nursery Soil No. 3) and sandy loam soil were filled (mixing ratio, 1:1). After transplanting, the grass was mowed (0.5˜1.0 cm in height) once a week, and kept for one month in a greenhouse maintained at 25˜30° C. (day) or 15˜25° C. (night), then the test substance of the present invention was applied at dosage of 4, 2, 1 and 0.5 kg/ha. As a reference, Dithiopyr (32% EC, manufactured by Dongbu Hannong Chemical Company, KOREA) was applied at the recommended rate of 0.48 kg/ha, or twice or quadruple amount thereof, i.e., 0.96 and 1.92 kg/ha, respectively. Spray was made by a track sprayer equipped with a Teejet 8002 nozzle. Spray volume was adjusted to 2,000 L/ha, which was a typical value for an Asian (Korea and Japan) golf course. The spray solution was prepared by dissolving the “test substance” in acetone and adding the same volume of 0.2% (v/v) Tween 20 aqueous solution. Two, four or six weeks after the spray of the test substance, phytotoxicity to the turfgrass were visually evaluated based on 0 to 10 scale (0: no phytotoxic effect, 10: completely killed). The test was conducted in a randomized block design with a three replicates and the results were summarized in the following Table 2 is an average value of the replicates.

Kentucky bluegrass = test: as above; assay type: in vivo; conditions: 0-10 scale (10=completely killed)
From the text: as §2

Bentgrass = test: as above; assay type: in vivo; conditions: 0-10 scale (10=completely killed)
From the text: as §2

Perennial ryegrass = test: as above; assay type: in vivo; conditions: 0-10 scale (10=completely killed)
From the text: as §2

In the case of `CSC(=O)c1c(C(F)F)nc(C(F)(F)F)c(C(=O)SC)c1CC(C)C` [Dithiopyr, reference compound], the “Suppression ratio relative to the biomass of the untreated group: Large crabgrass 1 leaf” value (Large crabgrass; .24 kg/ha) was 100%, the “Suppression ratio relative to the biomass of the untreated group: Large crabgrass 2 leaf” value (Large crabgrass; .24 kg/ha) was 89% and the “Suppression ratio relative to the biomass of the untreated group: Large crabgrass 3 leaf” value (Large crabgrass; .24 kg/ha) was 86%. For the same compound, the “Suppression ratio relative to the biomass of the untreated group: Large crabgrass 4 leaf” value (Large crabgrass; .24 kg/ha) was 56%, the “Suppression ratio relative to the biomass of the untreated group: Large crabgrass PRE” value (Large crabgrass; .24 kg/ha) was 100% and the “Suppression ratio relative to the biomass of the untreated group: Large crabgrass 1 leaf” value (Large crabgrass; .48 kg/ha) was 100%. The “Suppression ratio relative to the biomass of the untreated group: Large crabgrass 2 leaf” value (Large crabgrass; .48 kg/ha) was 95%, the “Suppression ratio relative to the biomass of the untreated group: Large crabgrass 3 leaf” value (Large crabgrass; .48 kg/ha) was 89% and the “Suppression ratio relative to the biomass of the untreated group: Large crabgrass 4 leaf” value (Large crabgrass; .48 kg/ha) was 57%. The “Suppression ratio relative to the biomass of the untreated group: Large crabgrass PRE” value (Large crabgrass; .48 kg/ha) was 100%, the “Suppression ratio relative to the biomass of the untreated group: Large crabgrass 1 leaf” value (Large crabgrass; .96 kg/ha) was 100% and the “Suppression ratio relative to the biomass of the untreated group: Large crabgrass 2 leaf” value (Large crabgrass; .96 kg/ha) was 98%. The “Suppression ratio relative to the biomass of the untreated group: Large crabgrass 3 leaf” value (Large crabgrass; .96 kg/ha) was 89%, the “Suppression ratio relative to the biomass of the untreated group: Large crabgrass 4 leaf” value (Large crabgrass; .96 kg/ha) was 66% and the “Suppression ratio relative to the biomass of the untreated group: Large crabgrass PRE” value (Large crabgrass; .96 kg/ha) was 100%. The “Suppression ratio relative to the biomass of the untreated group: Annual bluegrass 1 leaf” value (Annual bluegrass; .24 kg/ha) was 90%, the “Suppression ratio relative to the biomass of the untreated group: Annual bluegrass 2 leaf” value (Annual bluegrass; .24 kg/ha) was 87% and the “Suppression ratio relative to the biomass of the untreated group: Annual bluegrass 3 leaf” value (Annual bluegrass; .24 kg/ha) was 46%. For the same compound, the “Suppression ratio relative to the biomass of the untreated group: Annual bluegrass 4 leaf” value (Annual bluegrass; .24 kg/ha) was 4%, the “Suppression ratio relative to the biomass of the untreated group: Annual bluegrass PRE” value (Annual bluegrass; .24 kg/ha) was 100% and the “Suppression ratio relative to the biomass of the untreated group: Annual bluegrass 1 leaf” value (Annual bluegrass; .48 kg/ha) was 95%. The “Suppression ratio relative to the biomass of the untreated group: Annual bluegrass 2 leaf” value (Annual bluegrass; .48 kg/ha) was 88%, the “Suppression ratio relative to the biomass of the untreated group: Annual bluegrass 3 leaf” value (Annual bluegrass; .48 kg/ha) was 44% and the “Suppression ratio relative to the biomass of the untreated group: Annual bluegrass 4 leaf” value (Annual bluegrass; .48 kg/ha) was 10%. The “Suppression ratio relative to the biomass of the untreated group: Annual bluegrass PRE” value (Annual bluegrass; .48 kg/ha) was 100%, the “Suppression ratio relative to the biomass of the untreated group: Annual bluegrass 1 leaf” value (Annual bluegrass; .96 kg/ha) was 97% and the “Suppression ratio relative to the biomass of the untreated group: Annual bluegrass 2 leaf” value (Annual bluegrass; .96 kg/ha) was 91%. The “Suppression ratio relative to the biomass of the untreated group: Annual bluegrass 3 leaf” value (Annual bluegrass; .96 kg/ha) was 61%, the “Suppression ratio relative to the biomass of the untreated group: Annual bluegrass 4 leaf” value (Annual bluegrass; .96 kg/ha) was 35% and the “Suppression ratio relative to the biomass of the untreated group: Annual bluegrass PRE” value (Annual bluegrass; .96 kg/ha) was 100%. For the same compound, the “Phytotoxic effect, visual assessment: Zoysiagrass Week 2” value (shortened to “Phytotoxic effect … Zoysiagrass Week 2”) (Zoysiagrass; 0.48 kg/ha (recommended rate)) was 1.0, the “Phytotoxic effect, visual assessment: Zoysiagrass Week 4” value (“Phytotoxic effect … Zoysiagrass Week 4” below) (Zoysiagrass; 0.48 kg/ha (recommended rate)) was 1.0 and the “Phytotoxic effect, visual assessment: Zoysiagrass Week 6” value (from here on “Phytotoxic effect … Zoysiagrass Week 6”) (Zoysiagrass; 0.48 kg/ha (recommended rate)) was 0.7. The “Phytotoxic effect … Zoysiagrass Week 2” value (Zoysiagrass; 0.96 kg/ha) was 2.3, the “Phytotoxic effect … Zoysiagrass Week 4” value (Zoysiagrass; 0.96 kg/ha) was 1.5 and the “Phytotoxic effect … Zoysiagrass Week 6” value (Zoysiagrass; 0.96 kg/ha) was 1.3. The “Phytotoxic effect … Zoysiagrass Week 2” value (Zoysiagrass; 1.92 kg/ha) was 3.7, the “Phytotoxic effect … Zoysiagrass Week 4” value (Zoysiagrass; 1.92 kg/ha) was 3.3 and the “Phytotoxic effect … Zoysiagrass Week 6” value (Zoysiagrass; 1.92 kg/ha) was 3.0. The “Phytotoxicity against zoysiagrass (in words)” value (Zoysiagrass; in vivo) was “clearly evidencing the phytotoxicity”, the “Phytotoxic effect, visual assessment: Kentucky bluegrass Week 2” value (Kentucky bluegrass; 0.48 kg/ha (recommended rate)) was 1.5 and the “Phytotoxic effect, visual assessment: Kentucky bluegrass Week 4” value (Kentucky bluegrass; 0.48 kg/ha (recommended rate)) was 0.5. The “Phytotoxic effect, visual assessment: Kentucky bluegrass Week 6” value (Kentucky bluegrass; 0.48 kg/ha (recommended rate)) was 0.7, the “Phytotoxic effect, visual assessment: Kentucky bluegrass Week 2” value (Kentucky bluegrass; 0.96 kg/ha) was 2.2 and the “Phytotoxic effect, visual assessment: Kentucky bluegrass Week 4” value (Kentucky bluegrass; 0.96 kg/ha) was 2.7. The “Phytotoxic effect, visual assessment: Kentucky bluegrass Week 6” value (Kentucky bluegrass; 0.96 kg/ha) was 2.7, the “Phytotoxic effect, visual assessment: Kentucky bluegrass Week 2” value (Kentucky bluegrass; 1.92 kg/ha) was 3.7 and the “Phytotoxic effect, visual assessment: Kentucky bluegrass Week 4” value (Kentucky bluegrass; 1.92 kg/ha) was 4.2. The “Phytotoxic effect, visual assessment: Kentucky bluegrass Week 6” value (Kentucky bluegrass; 1.92 kg/ha) was 4.2, the “Phytotoxic effect, visual assessment: Bentgrass Week 2” value (shortened to “Phytotoxic effect … Bentgrass Week 2”) (Bentgrass; 0.48 kg/ha (recommended rate)) was 1.5 and the “Phytotoxic effect, visual assessment: Bentgrass Week 4” value (from here on “Phytotoxic effect … Bentgrass Week 4”) (Bentgrass; 0.48 kg/ha (recommended rate)) was 0.3. The “Phytotoxic effect, visual assessment: Bentgrass Week 6” value (“Phytotoxic effect … Bentgrass Week 6” for short) (Bentgrass; 0.48 kg/ha (recommended rate)) was 0.3, the “Phytotoxic effect … Bentgrass Week 2” value (Bentgrass; 0.96 kg/ha) was 2.3 and the “Phytotoxic effect … Bentgrass Week 4” value (Bentgrass; 0.96 kg/ha) was 1.7. The “Phytotoxic effect … Bentgrass Week 6” value (Bentgrass; 0.96 kg/ha) was 2.0, the “Phytotoxic effect … Bentgrass Week 2” value (Bentgrass; 1.92 kg/ha) was 3.3 and the “Phytotoxic effect … Bentgrass Week 4” value (Bentgrass; 1.92 kg/ha) was 4.2. For the same compound, the “Phytotoxic effect … Bentgrass Week 6” value (Bentgrass; 1.92 kg/ha) was 4.2, the “Phytotoxic effect, visual assessment: Perennial ryegrass Week 2” value (Perennial ryegrass; 0.48 kg/ha (recommended rate)) was 1.3 and the “Phytotoxic effect, visual assessment: Perennial ryegrass Week 4” value (Perennial ryegrass; 0.48 kg/ha (recommended rate)) was 0.3. The “Phytotoxic effect, visual assessment: Perennial ryegrass Week 6” value (Perennial ryegrass; 0.48 kg/ha (recommended rate)) was 0.3, the “Phytotoxic effect, visual assessment: Perennial ryegrass Week 2” value (Perennial ryegrass; 0.96 kg/ha) was 2.0 and the “Phytotoxic effect, visual assessment: Perennial ryegrass Week 4” value (Perennial ryegrass; 0.96 kg/ha) was 2.0. The “Phytotoxic effect, visual assessment: Perennial ryegrass Week 6” value (Perennial ryegrass; 0.96 kg/ha) was 1.3, the “Phytotoxic effect, visual assessment: Perennial ryegrass Week 2” value (Perennial ryegrass; 1.92 kg/ha) was 3.3 and the “Phytotoxic effect, visual assessment: Perennial ryegrass Week 4” value (Perennial ryegrass; 1.92 kg/ha) was 2.7. For the same compound, the “Phytotoxic effect, visual assessment: Perennial ryegrass Week 6” value (Perennial ryegrass; 1.92 kg/ha) was 2.3.

From patent US8445409B2, “Use of 5-benzyloxymethyl-1,2-isoxazoline derivatives as a herbicide” (Moghu Research Center Ltd., priority 2007, dated 2013)
